Experiments:
Type in all cases: cell-based, Escherichia coli
TOP10 E. coli − bcrA = assay: MIC determination by microtitre broth dilution method, TOP10 E. coli − bcrA; details: 24 h at 37° C.
Method: (§1) MIC Determination by Microtitre Broth Dilution Method
(§2) TOP10 E. coli with or without (O) bcrA were grown to a concentration of 2×10^4 cfu/ml (bcrA+was grown in the presence of 100 μg/ml ampicillin to select for the pBAD-TOPO vector) in RPMI medium (Sigma) in the presence of 0.002% L-arabinose, as the inducer of the bcrA gene. 100 μl TOP10 E. coli±bcrA was dispensed into 96 well microtitre plate (Sigma) to give a final concentration of 1×10^4 cfu/ml. […] The plates were incubated for 24 h at 37° C. and scored by growth or no growth.

TOP10 E. coli + bcrA [1] = assay: MIC determination by microtitre broth dilution method, TOP10 E. coli + bcrA; details: for Growth of TOP10 E. coli + bcrA: 24 h at 37° C.
Method: as §1, §2

TOP10 E. coli + bcrA [2] = assay: Phage clone activity against resistance of TOP10 E. coli + bcrA to nalidixic acid; details: for Nalidixic acid MIC: in the presence of phage (neat and diluted 1:10), TOP10 E. coli + bcrA, 24 h at 37° C.
Method: TOP10 E. coli+bcrA were grown to a concentration of 2×10^4 cfu/ml in RPMI medium (Sigma) containing 100 μg/ml ampicillin (to select for the pBAD-TOPO vector) in the presence of 0.002% L-arabinose, as the inducer of the bcrA gene. 100 μl TOP10 E. coli+bcrA, at a final concentration of 1×10^4 cfu/ml, were dispensed into 96 well microtitre plate (Sigma) in the presence of neat phage and phage diluted 1:10 (see table below). Serial doubling dilutions nalidixic acid was added to each well, with the concentration ranging from 128 to 0.25 μg/ml. A control with just the media was set up. The plates were incubated for 24 h at 37° C. Six phage clones were tested.

[3] = TOP10 E. coli + bcrA versus − bcrA

Row | Compound | Growth of TOP10 E. coli − bcrA (TOP10 E. coli − bcrA; antibiotic 0.125 μg/ml) | Growth of TOP10 E. coli − bcrA (TOP10 E. coli − bcrA; antibiotic 0.25 μg/ml) | Growth of TOP10 E. coli − bcrA (TOP10 E. coli − bcrA; antibiotic 0.5 μg/ml) | Growth of TOP10 E. coli − bcrA (TOP10 E. coli − bcrA; antibiotic 1 μg/ml) | Growth of TOP10 E. coli − bcrA (TOP10 E. coli − bcrA; antibiotic 2 μg/ml) | Growth of TOP10 E. coli − bcrA (TOP10 E. coli − bcrA; antibiotic 4 μg/ml) | Growth of TOP10 E. coli − bcrA (TOP10 E. coli − bcrA; antibiotic 8 μg/ml) | Growth of TOP10 E. coli − bcrA (TOP10 E. coli − bcrA; antibiotic 16 μg/ml) | Growth of TOP10 E. coli − bcrA (TOP10 E. coli − bcrA; antibiotic 32 μg/ml) | Growth of TOP10 E. coli − bcrA (TOP10 E. coli − bcrA; antibiotic 64 μg/ml) | Growth of TOP10 E. coli − bcrA (TOP10 E. coli − bcrA; antibiotic 128 μg/ml) | Growth of TOP10 E. coli + bcrA (TOP10 E. coli + bcrA [1]; antibiotic 0.125 μg/ml) | Growth of TOP10 E. coli + bcrA (TOP10 E. coli + bcrA [1]; antibiotic 0.25 μg/ml) | Growth of TOP10 E. coli + bcrA (TOP10 E. coli + bcrA [1]; antibiotic 0.5 μg/ml) | Growth of TOP10 E. coli + bcrA (TOP10 E. coli + bcrA [1]; antibiotic 1 μg/ml) | Growth of TOP10 E. coli + bcrA (TOP10 E. coli + bcrA [1]; antibiotic 2 μg/ml) | Growth of TOP10 E. coli + bcrA (TOP10 E. coli + bcrA [1]; antibiotic 4 μg/ml) | Growth of TOP10 E. coli + bcrA (TOP10 E. coli + bcrA [1]; antibiotic 8 μg/ml) | Growth of TOP10 E. coli + bcrA (TOP10 E. coli + bcrA [1]; antibiotic 16 μg/ml) | Growth of TOP10 E. coli + bcrA (TOP10 E. coli + bcrA [1]; antibiotic 32 μg/ml) | further results
1 | O=C(O)c1cn(C2CC2)c2cc(N3CCNCC3)c(F)cc2c1=O [Ciprofloxacin] | + | − | − | − | − | − | − | − | − | − | − | + | − | − | − | − | − | − | − | − | resistance conferred by the bcrA gene in TOP10 E. coli (TOP10 E. coli + bcrA [1]; [3]): No resistance; Growth of TOP10 E. coli + bcrA (TOP10 E. coli + bcrA [1]; antibiotic 64 μg/ml): −; Growth of TOP10 E. coli + bcrA (TOP10 E. coli + bcrA [1]; antibiotic 128 μg/ml): −
2 | SVVIFPLWQTVMGYT [Peptide 2] |  |  |  |  |  |  |  |  |  |  |  |  |  |  |  |  |  |  |  |  | Nalidixic acid MIC (TOP10 E. coli + bcrA [2]): 16 µg/mL
3 | HRLDRMVASFAFHR [Peptide 3] |  |  |  |  |  |  |  |  |  |  |  |  |  |  |  |  |  |  |  |  | Nalidixic acid MIC (TOP10 E. coli + bcrA [2]): 8 µg/mL
4 | CCn1cc(C(=O)O)c(=O)c2ccc(C)nc21 [Nalidixic Acid] | + | + | + | + | + | − | − | − | − | − | − | + | + | + | + | + | + | + | − | − | difference in MIC in TOP10 E. coli ± bcrA (TOP10 E. coli + bcrA [1]; TOP10 E. coli + bcrA versus − bcrA, doubling dilutions): three well difference; Growth of TOP10 E. coli + bcrA (TOP10 E. coli + bcrA [1]; antibiotic 64 μg/ml): −; Growth of TOP10 E. coli + bcrA (TOP10 E. coli + bcrA [1]; antibiotic 128 μg/ml): −; MIC (TOP10 E. coli + bcrA [2]; Escherichia coli, 24 h, read-out: Nalidixic acid MIC): 16 µg/mL
5 | AIISFGFMAFFGSVV [Peptide 1] |  |  |  |  |  |  |  |  |  |  |  |  |  |  |  |  |  |  |  |  | Nalidixic acid MIC (TOP10 E. coli + bcrA [2]): 2 µg/mL
6 | N=C(NCCCCCCNC(=N)NC(=N)Nc1ccc(Cl)cc1)NC(=N)Nc1ccc(Cl)cc1 [Chlorohexadine] | + | + | + | + | + | + | + | − | − | − | − | + | + | + | + | + | + | + | − | − | resistance conferred by the bcrA gene in TOP10 E. coli (TOP10 E. coli + bcrA [1]; [3]): No resistance; Growth of TOP10 E. coli + bcrA (TOP10 E. coli + bcrA [1]; antibiotic 64 μg/ml): −; Growth of TOP10 E. coli + bcrA (TOP10 E. coli + bcrA [1]; antibiotic 128 μg/ml): −
7 | CN(C)[C@@H]1C(O)=C(C(N)=O)C(=O)[C@@]2(O)C(O)=C3C(=O)c4c(O)cccc4[C@@](C)(O)[C@H]3C[C@@H]12 [Tetracycline] | + | + | + | + | + | − | − | − | − | − | − | + | + | + | + | + | + | − | − | − | Growth of TOP10 E. coli + bcrA (TOP10 E. coli + bcrA [1]; antibiotic 64 μg/ml): −; Growth of TOP10 E. coli + bcrA (TOP10 E. coli + bcrA [1]; antibiotic 128 μg/ml): −

From patent US7037495B1, “Antimicrobial compositions” (priority 1999, dated 2006)
